Results reported in US8975417B2, “Pyrazolopyrrolidine derivatives and their use in the treatment of disease” (Novartis AG, priority 2013, dated 2015).

Assays:
Format in all cases: cell-based
MV-4-11 cells = assay: Cell growth inhibition assay (CellTiter-Glo), MV-4-11; settings: Homo sapiens, MV4-11, read-out: MV-4-11 TGI
Procedure, shortened: (§1)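 Luminescent ATP quantification served as the viability read-out following incubation at 37° C. under 5% CO2. A day-0 reference plate allowed scaling from −100% (medium) to 100% (0.1% DMSO vehicle), with IC50 and TGI fitted by a four-parameter model.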

THP-1 cells = assay: Cell growth inhibition assay (CellTiter-Glo), THP-1; settings: Homo sapiens, read-out: THP-1 TGI
Procedure, shortened: as §1

[1] = target: nuclear BRD4-NUT foci in HCC2494 NUT midline carcinoma cells (Homo sapiens (Human), UniProt O60885+Q86Y26); assay: Nut-foci formation assay; settings: 24 hours, read-out: HCS Brd4-NUT IC50
Procedure, shortened: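 Read-out is number and intensity of nuclear NUT foci by immunofluorescence imaging, relative to 0.1% DMSO set as 100. Compounds were tested as 3-fold series starting at 10 μM on HCC2494 NUT midline carcinoma cells for 24 h. Four-parameter fitting gave IC50.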

| SMILES | IC50 [1] [nM] | IC (total growth inhibition) (MV-4-11 cells) [µM] | IC (total growth inhibition) (THP-1 cells) [µM] |
| --- | --- | --- | --- |
| CCc1nn(C2CC2)c2c1C(c1ccc(Cl)cc1)N(c1cc(OC)c3nnc(C)n3c1)C2=O (stereo not drawn) [Example 84, 4-(4-chlorophenyl)-1-cyclopropyl-3-ethyl-5-(8-methoxy-3-methyl-[1,2,4]triazolo[4,3-a]pyridin-6-yl)-4,5-dihydropyrrolo[3,4-c]pyrazol-6(1H)-one] | 92 | 0.098 | 0.163 |
| Cc1nn(-c2ccnn2C)c2c1[C@H](c1ccc(Cl)cc1)N(c1cc(C)c3nnc(C)n3c1)C2=O [Example 124, (S)-4-(4-chlorophenyl)-5-(3,8-dimethyl-[1,2,4]triazolo[4,3-a]pyridin-6-yl)-3-methyl-1-(1-methyl-1H-pyrazol-5-yl)-4,5-dihydropyrrolo[3,4-c]pyrazol-6(1H)-one] | 1730 | 0.73 | 1.54 |
| CCc1c2c(nn1CCO)C(=O)N(c1cc(C)c3onc(C)c3c1)C2c1ccc(Cl)cc1 (stereo not drawn) [Example 80, 4-(4-chlorophenyl)-5-(3,7-dimethylbenzo[d]isoxazol-5-yl)-3-ethyl-2-(2-hydroxyethyl)-4,5-dihydropyrrolo[3,4-c]pyrazol-6(2H)-one] | 178 | 0.472 | 1.03 |
| Cc1nn(C(C)C)c2c1[C@H](c1ccc(Cl)cc1)N(c1cc(C)c(=O)n(C)c1)C2=O [Example 103, (S)-4-(4-chlorophenyl)-5-(1,5-dimethyl-6-oxo-1,6-dihydropyridin-3-yl)-1-isopropyl-3-methyl-4,5-dihydropyrrolo[3,4-c]pyrazol-6(1H)-one] | > 10000 | 6.54 | > 10 |
| CCc1nn(CCO)c2c1C(c1ccc(Cl)cc1)N(c1cc(C)c(=O)n(C)c1)C2=O (stereo not drawn) [Example 78, 4-(4-chlorophenyl)-5-(1,5-dimethyl-6-oxo-1,6-dihydropyridin-3-yl)-3-ethyl-1-(2-hydroxyethyl)-4,5-dihydropyrrolo[3,4-c]pyrazol-6(1H)-one] | 39.5 | 0.0855 | 0.223 |
| COc1c2c(nn1C)C(=O)N(c1cc(C)c(=O)n(C)c1)C2c1ccc(Cl)cc1 (stereo not drawn) [Example 77, 4-(4-chlorophenyl)-5-(1,5-dimethyl-6-oxo-1,6-dihydropyridin-3-yl)-3-methoxy-2-methyl-4,5-dihydropyrrolo[3,4-c]pyrazol-6(2H)-one] | 99.5 | 0.132 | 0.37 |
| Cc1nn(C2CN(C)C2)c2c1C(c1ccc(Cl)cc1)N(c1cc(C)c(=O)n(C)c1)C2=O (stereo not drawn) [Example 140, 4-(4-chlorophenyl)-5-(1,5-dimethyl-6-oxo-1,6-dihydropyridin-3-yl)-3-methyl-1-(1-methylazetidin-3-yl)-4,5-dihydropyrrolo[3,4-c]pyrazol-6(1H)-one] | 435 | 0.154 | 0.925 |
| COc1ncccc1-n1nc(C)c2c1C(=O)N(c1cc(Cl)c(=O)n(C)c1)C2c1ccc(Cl)cc1 (stereo not drawn) [Example 72, 5-(5-chloro-1-methyl-6-oxo-1,6-dihydropyridin-3-yl)-4-(4-chlorophenyl)-1-(2-methoxypyridin-3-yl)-3-methyl-4,5-dihydropyrrolo[3,4-c]pyrazol-6(1H)-one] | 141 | 0.164 | 0.408 |
| CCc1nn(-c2ccnn2C)c2c1C(c1ccc(Cl)cc1)N(c1cc(C)c(=O)n(C)c1)C2=O (stereo not drawn) [Example 89, 4-(4-chlorophenyl)-5-(1,5-dimethyl-6-oxo-1,6-dihydropyridin-3-yl)-3-ethyl-1-(1-methyl-1H-pyrazol-5-yl)-4,5-dihydropyrrolo[3,4-c]pyrazol-6(1H)-one] | 44.3 | 0.0673 | 0.119 |
| Cn1cc(N2C(=O)c3c(c(C(F)(F)F)nn3C3CC3)C2c2ccc(Cl)cc2)cc(Cl)c1=O (stereo not drawn) [Example 44, 5-(5-chloro-1-methyl-6-oxo-1,6-dihydropyridin-3-yl)-4-(4-chlorophenyl)-1-cyclopropyl-3-(trifluoromethyl)-4,5-dihydropyrrolo[3,4-c]pyrazol-6(1H)-one] | 164 | 0.329 | 0.484 |

The next lines start with results.

| IC50 [1] [nM] | SMILES | IC (total growth inhibition) (MV-4-11 cells) [µM] | IC (total growth inhibition) (THP-1 cells) [µM] |
| --- | --- | --- | --- |
| 65.4 | Cc1nn(-c2ccnn2C)c2c1[C@@H](c1ccc(Cl)cc1)N(c1cc(C)c(=O)n(C)c1)C2=O [Example 120, (R)-4-(4-chlorophenyl)-5-(1,5-dimethyl-6-oxo-1,6-dihydropyridin-3-yl)-3-methyl-1-(1-methyl-1H-pyrazol-5-yl)-4,5-dihydropyrrolo[3,4-c]pyrazol-6(1H)-one] | 0.106 | 0.165 |
| 231 | Cc1cc(N2C(=O)c3nn(C(=O)N(C)C)c(C)c3C2c2ccc(Cl)cc2)cn(C)c1=O (stereo not drawn) [Example 141, 4-(4-chlorophenyl)-5-(1,5-dimethyl-6-oxo-1,6-dihydropyridin-3-yl)-N,N,3-trimethyl-6-oxo-5,6-dihydropyrrolo[3,4-c]pyrazole-2(4H)-carboxamide] | 0.222 | 0.527 |
| 34.3 | COc1ncccc1-n1nc(C)c2c1C(=O)N(c1cc(C)c3nnc(C)n3n1)C2c1ccc(Cl)cc1 (stereo not drawn) [Example 111, 4-(4-chlorophenyl)-5-(3,8-dimethyl-[1,2,4]triazolo[4,3-b]pyridazin-6-yl)-1-(2-methoxypyridin-3-yl)-3-methyl-4,5-dihydropyrrolo[3,4-c]pyrazol-6(1H)-one] | 0.0306 | 0.0484 |
| 35.3 | Cc1nn(C(=O)N(C)C)c2c1[C@@H](c1ccc(Cl)cc1)N(c1cc(C)c3nnc(C)n3c1)C2=O [Example 149, (R)-4-(4-chlorophenyl)-5-(3,8-dimethyl-[1,2,4]triazolo[4,3-a]pyridin-6-yl)-N,N,3-trimethyl-6-oxo-5,6-dihydropyrrolo[3,4-c]pyrazole-1(4H)-carboxamide] | 0.0505 | 0.138 |
| 554 | Cc1nn(C2CNC2)c2c1C(c1ccc(Cl)cc1)N(c1cc(C)c3nnc(C)n3c1)C2=O (stereo not drawn) [Example 151, 1-(azetidin-3-yl)-4-(4-chlorophenyl)-5-(3,8-dimethyl-[1,2,4]triazolo[4,3-a]pyridin-6-yl)-3-methyl-4,5-dihydropyrrolo[3,4-c]pyrazol-6(1H)-one] | 0.368 | 1.33 |
| 587 | CC(=O)Nc1cc(N2C(=O)c3c(c(C)nn3C3CC3)C2c2ccc(Cl)cc2)nn2c(C)nnc12 (stereo not drawn) [Example 126, N-(6-(4-(4-chlorophenyl)-1-cyclopropyl-3-methyl-6-oxopyrrolo[3,4-c]pyrazol-5-(1H,4H,6H)-yl)-3-methyl-[1,2,4]triazolo[4,3-b]pyridazin-8-yl)acetamide] | 0.682 | 1.15 |
| 92.8 | Cc1cc(N2C(=O)c3nn(C4COC4)c(C)c3C2c2ccc(Cl)cc2)cn2c(C)nnc12 (stereo not drawn) [Example 136, 4-(4-chlorophenyl)-5-(3,8-dimethyl-[1,2,4]triazolo[4,3-a]pyridin-6-yl)-3-methyl-2-(oxetan-3-yl)-4,5-dihydropyrrolo[3,4-c]pyrazol-6(2H)-one] | 0.041 | 0.186 |
| 27.7 | Cc1cc(N2C(=O)c3c(c(CO)nn3C3CC3)C2c2ccc(Cl)cc2)cn2c(C)nnc12 (stereo not drawn) [Example 131, 4-(4-chlorophenyl)-1-cyclopropyl-5-(3,8-dimethyl-[1,2,4]triazolo[4,3-a]pyridin-6-yl)-3-(hydroxymethyl)-4,5-dihydropyrrolo[3,4-c]pyrazol-6(1H)-one] | 0.0405 | 0.119 |
| 23.2 | Cc1nn(-c2ccnn2C)c2c1C(c1ccc(Cl)cc1)N(c1cc(C)c3nnc(C)n3n1)C2=O (stereo not drawn) [Example 114, 4-(4-chlorophenyl)-5-(3,8-dimethyl-[1,2,4]triazolo[4,3-b]pyridazin-6-yl)-3-methyl-1-(1-methyl-1H-pyrazol-5-yl)-4,5-dihydropyrrolo[3,4-c]pyrazol-6(1H)-one] | 0.0443 | 0.0765 |
| 43.3 | CCOC(=O)N1CC(n2nc(C)c3c2C(=O)N(c2cc(C)c4nnc(C)n4c2)C3c2ccc(Cl)cc2)C1 (stereo not drawn) [Example 156, Ethyl 3-(4-(4-chlorophenyl)-5-(3,8-dimethyl-[1,2,4]triazolo[4,3-a]pyridin-6-yl)-3-methyl-6-oxo-5,6-dihydropyrrolo[3,4-c]pyrazol-1(4H)-yl)azetidine-1-carboxylate] | 0.058 | 0.143 |
| 13.9 | COCc1nn(C2CC2)c2c1C(c1ccc(Cl)cc1)N(c1cc(C)c3nnc(C)n3c1)C2=O (stereo not drawn) [Example 130, 4-(4-chlorophenyl)-1-cyclopropyl-5-(3,8-dimethyl-[1,2,4]triazolo[4,3-a]pyridin-6-yl)-3-(methoxymethyl)-4,5-dihydropyrrolo[3,4-c]pyrazol-6(1H)-one] | 0.0267 | 0.0813 |
| 7.3 | Cc1nn(C2CC2)c2c1[C@@H](c1ccc(Cl)cc1)N(c1cc(C)c3nnc(C)n3n1)C2=O [Example 122, (R)-4-(4-chlorophenyl)-1-cyclopropyl-5-(3,8-dimethyl-[1,2,4]triazolo[4,3-b]-pyridazin-6-yl)-3-methyl-4,5-dihydropyrrolo[3,4-c]pyrazol-6(1H)-one] | 0.00842 | 0.0107 |
